Data on 24 compounds can be found in patent US10065965B2, “Imidazo[1,2-B][1,2,4]triazine derivatives as antiparasitic agents” (GlaxoSmithKline Intellectual Property Development Limited, priority 2015, dated 2018).

SMILES strings stand for the structures. ≈ marks a conversion by molar mass, not a printed value.

A word on the solubility: it is the dissolved amount per volume that the medium holds.

One data set has as its system Trypanosoma cruzi. The data set can be described thus: Assay 6 Trypanosoma cruzi intracellular assay (infected H9C2 cells). To be noted: H9c2, in Rattus norvegicus, 72 h, infected H9C2 rat cardiomyocytes, read-out: pEC50 value against Trypanosoma cruzi (converted). Format: cell-based. As to the method: Compounds were dispensed into black 384-well assay plates (Greiner) by acoustic dispensing (LabCyte ECHO). For potency determinations, eleven-point, one in three dilution curves were generated, with a top concentration of 50 μM. H9C2 rat cardiomyocytes cells were dispensed in T225 tissue culture flasks and after 4 hours they were infected during 18 hours with T. cruzi trypomastigotes in the same T225 tissue culture flasks at a multiplicity of infection of 1. Next, any remaining free trypomastigotes were washed away with PBS and the infected H9C2 cells were harvested by trypsinisation. The infected H9C2 cells were then plated into 384-well plates containing the compounds to be tested, at 2500 cells per well in DMEM media with 2% FBS, 1% Penicillin/Streptomocin, 2 mM L-Glutamine, 1 mM Na Pyruvate and 25 mM HEPES. After 72 h incubation at 37° C. in presence of 5% CO2, the plates were fixed and stained with 4% formaldehyde and 2 μM Draq5 for 3 hours at room temperature. The plates were imaged on a Perkin Elmer Opera high-content imaging system using a 20× air objective. Images were analysed using the Acapella building blocks system (Perkin Elmer). The image analysis algorithm first identified the H9C2 nuclei followed by demarcation of the cytoplasm and identification of intracellular amastigotes. This algorithm reported mean number of parasites per H9C2 cell, the percentage of infected H9C2 cells and the total number of H9C2 cells.

Data set [1] in a line: Assay 4 solubility assay, ChemiLuminescent Nitrogen Detection (CLND). To be noted: phosphate buffered saline, pH 7.4, aqueous buffer, kinetic from dmso stock, pH 7.4 PBS, from 10 mM DMSO stock, 1 h at room temperature. Format: physicochemical. How it is done:
A 10 mM DMSO stock solution of the compound was prepared. Solvents and Buffers Organic solvents of HPLC grade were used. Ultra pure water (Milli-Q grade) was used. Buffers were prepared with ultra pure water and filtered using 0.45μ cameo filters. Aqueous Buffer Solution: Phosphate Buffer Saline (PBS) @ pH 7.4 was prepared from Sigma dry powder packs, P-3813. Each one was diluted to 1 liter with deionised water. The pH was checked before the solution was used II. Procedures. • a) DMSO concentration was measured. DMSO blanks and ondansetron and caffeine standards were added to the plate (column 12, A, B, C, & D for the blanks and E, F, G, & H for the standards). Plates were covered with foil. When the UV and CLND detectors baselines appeared to be stable, the CLND was zeroed. • b) Once DMSO concentration measurements were complete, a filtration plate was prepared from each parent plate by diluting 5 μl of the 10 mM DMSO stock solution to […] with pH7.4 PBS. • c) After the plates were prepared, they were covered with a plate lid and left to incubate for 1 h at room temperature. • d) Sample was filtered using MILLIPORE MultiScreen Solubility (MSSLBPC10) Filtration Plates, to NUNC V well plates. The filter plate was removed and the NUNC plate was sealed with a power seal plate seal. • e) HPLC/CLND instruments were set up and left to equilibrate. Mobile phases (MeOH:H2O 1:1, flow rate: 0.2 ml/min, sensitivity z10, Gain High). The samples were run. • f) The assay curve fit was done by linear regression and solubility values were reported in μM.

On to `O=C(Nc1ccc(F)c(-c2cn3nc(C4CCOC4)cnc3n2)c1)N1CCCC1` (racemic) [Example 23, (+,−)-N-(4-fluoro-3-(2-(tetrahydrofuran-3-yl)imidazo[1,2-b] [1,2,4]triazin-6-yl)phenyl)pyrrolidine-1-carboxamide], for which the EC50 in the data set with Trypanosoma cruzi was 5.01 to 631 nM.

With `CC(O)c1cnc2nc(-c3cc(NC(=O)N4CCCC4)ccc3F)cn2n1` (racemic) [Example 24, (+,−)-N-(4-fluoro-3-(2-(1-hydroxyethyl)imidazo [1,2-b][1,2,4]triazin-6-yl)phenyl)pyrrolidine-1-carboxamide], the EC50 with Trypanosoma cruzi was 5.01 to 631 nM. The compound further registered a solubility at 1 h in data set [1] of 100 to 416 µM (≈ 37 to 154 µg/mL).

For the compound `O=C(Nc1ccc(F)c(-c2cn3nc(N4CCCOCC4)cnc3n2)c1)N1CCCC1` [Example 11, N-(3-(2-(1,4-oxazepan-4-yl)imidazo[1,2-b][1,2,4]triazin-6-yl)-4-fluorophenyl)pyrrolidine-1-carboxamide], the EC50 in the data set with Trypanosoma cruzi is 5.01 to 631 nM.

In the case of `O=C(Nc1ccc(F)c(-c2cn3nc(C4=CCOCC4)cnc3n2)c1)N1CCCC1` [Example 12, N-(3-(2-(3,6-dihydro-2H-pyran-4-yl)imidazo[1,2-b] [1,2,4]triazin-6-yl)-4-fluorophenyl)pyrrolidine-1-carboxamide], in the data set with Trypanosoma cruzi, the EC50 was 5.01 to 631 nM. Also, the solubility at 1 h in data set [1] lay within 10 to 83 µM (≈ 4.08 to 33.9 µg/mL).

`CC(C)c1cnc2nc(-c3cc(NC(=O)N4CCCC4)ccc3F)cn2n1` [Example 13, N-(4-fluoro-3-(2-isopropylimidazo [1,2-b][1,2,4]triazin-6-yl)phenyl)pyrrolidine-1-carboxamide]: in the data set with Trypanosoma cruzi, the EC50 was 5.01 to 631 nM. Further, the solubility at 1 h in data set [1] is 100 to 416 µM (≈ 36.8 to 153 µg/mL).

Consider `C=C(C)c1cnc2nc(-c3cc(NC(=O)N4CCCC4)ccc3F)cn2n1` [Example 14, N-(4-fluoro-3-(2-(prop-1-en-2-yl)imidazo [1,2-b][1,2,4]triazin-6-yl)phenyl)pyrrolidine-1-carboxamide], for which the EC50 with Trypanosoma cruzi was 5.01 to 631 nM. The solubility at 1 h in data set [1] is 10 to 83 µM (≈ 3.66 to 30.4 µg/mL).

Turning to `O=C(Nc1ccc(F)c(-c2cn3nc(C4CCOCC4)cnc3n2)c1)N1CCCC1` [Example 15, N-(4-fluoro-3-(2-(tetrahydro-2H-pyran-4-yl)imidazo[1,2-b] [1,2,4]triazin-6-yl)phenyl)pyrrolidine-1-carboxamide], the EC50 in the data set with Trypanosoma cruzi is 5.01 to 631 nM. Also, in data set [1], the solubility at 1 h fell in the range of 100 to 416 µM (≈ 41 to 171 µg/mL).

Take `O=C(Nc1ccc(F)c(-c2cn3nc(-c4ccc(OCCN5CCOCC5)cc4)cnc3n2)c1)N1CCCC1` [Example 17, N-(4-fluoro-3-(2-(4-(2-morpholinoethoxy)phenyl)imidazo[1,2-b][1,2,4]triazin-6-yl)phenyl) pyrrolidine-1-carboxamide]: the EC50 with Trypanosoma cruzi is 5.01 to 631 nM. The same compound registered a solubility at 1 h in data set [1] of 1 to 6 µM (≈ 0.532 to 3.19 µg/mL).

Turning to `O=C(Nc1ccc(F)c(-c2cn3nc(-c4ccccc4CN4CCOCC4)cnc3n2)c1)N1CCCC1` [Example 20, N-(4-fluoro-3-(2-(2-(morpholinomethyl)phenyl)imidazo[1,2-b] [1,2,4]triazin-6-yl)phenyl)pyrrolidine-1-carboxamide], the EC50 in the data set with Trypanosoma cruzi was 5.01 to 631 nM. The solubility at 1 h in data set [1] fell in the range of 10 to 83 µM (≈ 5.02 to 41.6 µg/mL).

As for `COCCOc1ccc(-c2cnc3nc(-c4cc(NC(=O)N5CCCC5)ccc4F)cn3n2)cc1` [Example 21, N-(4-fluoro-3-(2-(4-(2-methoxyethoxy)phenyl)imidazo[1,2-b][1,2,4]triazin-6-yl)phenyl) pyrrolidine-1-carboxamide], the EC50 with Trypanosoma cruzi was 5.01 to 631 nM.

With `O=C(Nc1ccc(F)c(-c2cn3nc(CCCO)cnc3n2)c1)N1CCCC1` [Example 25, N-(4-fluoro-3-(2-(3-hydroxypropyl)imidazo [1,2-b][1,2,4]triazin-6-yl)phenyl)pyrrolidine-1-carboxamide], in the data set with Trypanosoma cruzi, the EC50 was 5.01 to 631 nM. Further, the solubility at 1 h in data set [1] is 100 to 416 µM (≈ 38.4 to 160 µg/mL).

As to `Cc1c(-c2cc(NC(=O)N3CCCC3)ccc2F)nc2ncc(N3CCOCC3)nn12` [Example 27, N-(4-fluoro-3-(7-methyl-2-morpholinoimidazo [1,2-b][1,2,4]triazin-6-yl)phenyl)pyrrolidine-1-carboxamide], the EC50 in the data set on Trypanosoma cruzi was 5.01 to 631 nM. For the same compound, in data set [1], the solubility at 1 h lay in the range of 100 to 416 µM (≈ 42.5 to 177 µg/mL).

As to `Cc1c(-c2cccc(NC(=O)N3CCCC3)c2)nc2ncc(N3CCOCC3)nn12` [Example 28, N-(3-(7-methyl-2-morpholinoimidazo [1,2-b][1,2,4]triazin-6-yl)phenyl)pyrrolidine-1-carboxamide], in the data set with Trypanosoma cruzi, the EC50 is 5.01 to 631 nM. In addition, the solubility at 1 h in data set [1] lay within 100 to 416 µM (≈ 40.7 to 170 µg/mL).

Consider `COCCOc1ccccc1-c1cnc2nc(-c3cc(NC(=O)N4CCCC4)ccc3F)cn2n1` [Example 29, N-(4-fluoro-3-(2-(2-(2-methoxyethoxy)phenyl)imidazo[1,2-b][1,2,4]triazin-6-yl)phenyl) pyrrolidine-1-carboxamide], for which, in the data set on Trypanosoma cruzi, the EC50 was 5.01 to 631 nM. The compound also returned a solubility at 1 h in data set [1] of 10 to 83 µM (≈ 4.77 to 39.6 µg/mL).

On to `COc1ccccc1-c1cnc2nc(-c3cc(NC(=O)N4CCCC4)ccc3F)cn2n1` [Example 30, N-(4-fluoro-3-(2-(2-methoxyphenyl)imidazo [1,2-b][1,2,4]triazin-6-yl)phenyl)pyrrolidine-1-carboxamide], for which the EC50 with Trypanosoma cruzi is 5.01 to 631 nM. Further, the solubility at 1 h in data set [1] lay within 10 to 83 µM (≈ 4.32 to 35.9 µg/mL).

In the case of `O=C(Nc1ccc(F)c(-c2cn3nc(-c4ccccn4)cnc3n2)c1)N1CCCC1` [Example 35, N-(4-fluoro-3-(2-(pyridin-2-yl)imidazo[1,2-b] [1,2,4]triazin-6-yl)phenyl)pyrrolidine-1-carboxamide], the EC50 in the data set on Trypanosoma cruzi is 5.01 to 631 nM. The solubility at 1 h in data set [1] is 10 to 83 µM (≈ 4.03 to 33.5 µg/mL).

As for `CC(C)Cc1cnc2nc(-c3cc(NC(=O)N4CCCC4)ccc3F)cn2n1` [Example 36, N-(4-fluoro-3-(2-isobutyl-imidazo[1,2-b][1,2,4]triazin-6-yl)phenyl) pyrrolidine-1-carboxamide], in the data set with Trypanosoma cruzi, the EC50 was 5.01 to 631 nM. In data set [1], the solubility at 1 h lay in the range of 10 to 83 µM (≈ 3.82 to 31.7 µg/mL).

Consider `O=C(Nc1ccc(F)c(-c2nc3ncc(N4CCOCC4)nn3c2F)c1)N1CCCC1` [Example 40, N-(4-fluoro-3-(7-fluoro-2-morpholinoimidazo [1,2-b][1,2,4]triazin-6-yl)phenyl)pyrrolidine-1-carboxamide], for which the EC50 with Trypanosoma cruzi is 5.01 to 631 nM. The compound also showed a solubility at 1 h in data set [1] of 100 to 416 µM (≈ 42.9 to 179 µg/mL).

On to `O=C(Nc1ccc(F)c(-c2cn3nc(N4CCOCC4)cnc3n2)c1)N1CCC1` [Example 42, N-(4-fluoro-3-(2-morpholinoimidazo [1,2-b][1,2,4]triazin-6-yl)phenyl)azetidine-1-carboxamide], for which the EC50 in the data set with Trypanosoma cruzi is 5.01 to 631 nM. In addition, the solubility at 1 h in data set [1] was 100 to 416 µM (≈ 39.7 to 165 µg/mL).

As for `O=C(Nc1ccc(Cl)c(-c2cn3nc(N4CCOCC4)cnc3n2)c1)N1CCCC1` [Example 43, N-(4-chloro-3-(2-morpholinoimidazo[1,2-b][1,2,4]triazin-6-yl)phenyl)pyrrolidine-1-carboxamide], the EC50 with Trypanosoma cruzi was 5.01 to 631 nM. For the same compound, the solubility at 1 h in data set [1] fell in the range of 10 to 83 µM (≈ 4.28 to 35.5 µg/mL).

For `CC(=O)c1cnc2nc(-c3cc(NC(=O)N4CCCC4)ccc3F)cn2n1` [Example 46, N-(3-(2-acetylimidazo [1,2-b][1,2,4]triazin-6-yl)-4-fluorophenyl) pyrrolidine-1-carboxamide], the EC50 in the data set on Trypanosoma cruzi is 5.01 to 631 nM. In data set [1], the solubility at 1 h fell in the range of 100 to 416 µM (≈ 36.8 to 153 µg/mL).

Consider `CC(C)=Cc1cnc2nc(-c3cc(NC(=O)N4CCCC4)ccc3F)cn2n1` [Example 47, N-(4-fluoro-3-(2-(2-methylprop-1-en-1-yl)imidazo[1,2-b][1,2,4]triazin-6-yl)phenyl) pyrrolidine-1-carboxamide], for which, in the data set on Trypanosoma cruzi, the EC50 is 5.01 to 631 nM. Moreover, the solubility at 1 h in data set [1] fell in the range of 10 to 83 µM (≈ 3.8 to 31.6 µg/mL).

Regarding `O=C(Nc1cnc2nc(-c3cc(NC(=O)N4CCCC4)ccc3F)cn2n1)C1CCCO1` (stereo not drawn) [Example 49, N-(4-fluoro-3-(2-(tetra-hydrofuran-2-carboxamido)imidazo [1,2-b][1,2,4]triazin-6-yl)phenyl)pyrrolidine-1-carboxamide], the EC50 with Trypanosoma cruzi was 5.01 to 631 nM. The compound also showed a solubility at 1 h in data set [1] of 10 to 83 µM (≈ 4.39 to 36.5 µg/mL).

`CC(C)OC(=O)Nc1cnc2nc(-c3cc(NC(=O)N4CCCC4)ccc3F)cn2n1` [Example 54, isopropyl (6-(2-fluoro-5-(pyrrolidine-1-carboxamido)phenyl)imidazo[1,2-b][1,2,4]triazin-2-yl)carbamate]: the EC50 in the data set on Trypanosoma cruzi was 5.01 to 631 nM. The solubility at 1 h in data set [1] was 10 to 83 µM (≈ 4.27 to 35.5 µg/mL).
